# Source: patent US12440471B2, “Compositions and methods for the treatment of bronchopulmonary dysplasia (BPD) and BPD-associated pulmonary hypertension” (AyuVis Research, Inc., priority 2021, dated 2025)
# System: hyperoxia-exposed BPD mouse model
# Experiment: Hyperoxia-exposed BPD mouse model: dose response and lung morphometry
# Type: in vivo
# Method: Simultaneously, the AVR-48 nanosuspension formulation IN (0.11 mg/kg) was tested as well as in solution form, IP and IV (10 mg/kg) (through the facial vein), and confirmed that all routes of administration gave similar outcomes. […] From the PK study, as described above, the bioavailability of the drug in the plasma and lungs were similar when delivered as solution formulation via either IN or IP routes. As the goal of this study is to develop AVR-48 as a commercially viable and applicable therapeutic candidate for BPD, the IP route was selected as the preferred mode of drug delivery in neonatal murine pups, with the rationale that it would be easier to deliver the drug systemically to preterm babies IV, rather than the IN route. The results and outcome of all the routes of administration have been presented in a cumulative manner, as the endpoint was similar for all routes of administration. […] FIG. 1 is a dose response study of AVR-48 at different doses of […], given IP. ****p<0.0001. N=5-7 mice per group. 10 mg/kg (IP) was selected as the most efficacious dose. IP: intraperitoneal; Hyp: hyperoxia; BPD: Bronchopulmonary dysplasia.
# Formulation of AVR-48 for efficacy and toxicokinetic studies. For the mouse dose response efficacy studies, AVR-48 was reconstituted in 0.9% sterile normal saline to give a final dose concentration of […] as a colorless solution, and injected IP (30 μl) on P2 and P4. The PLGA encapsulated AVR-48 or the GFP-tagged analog was resuspended in deionized sterile water to make a nanosuspension with final dose concentration of 0.025, 0.05 and 0.11 mg/kg/drop. The surfactant Curosurf® (Cheisi Parma, Italy), available commercially, was delivered IN at a volume of 3 μl per nostril, on P2 and P4. For the toxicokinetic study of AVR-48 in rat pups, a formulation of 10% DMSO, 20% tetraglycol, 20% PEG 400, and 50% sterile water was made fresh before administration (Shah, Das et al. 2021).
# For the hyperoxia experiment, newborn pups were exposed to 100% hyperoxia (P0), along with their mothers, in cages in an airtight Plexiglas chamber (OxyCycler; Biospherix, Redfield, NY, USA) as described previously by the present inventors (Syed, Das et al., 2017, Leary, Das et al. 2019, Das, Acharya et al. 2020, relevant portions incorporated herein) for 4 consecutive days (till P4) and removed to RA on P5 to be recovered till P14, so as to emulate the human BPD condition. All pups were sacrificed on P14 for further experimental analyses. The pups without any hyperoxia exposure served as the corresponding RA (normoxia) controls.
# Histology, immunohistochemistry and immunofluorescence. Both the RA control and BPD mice were anesthetized (using an overdose of a cocktail of xylazine-ketamine) and lung and heart tissues were harvested after perfusion and fixed overnight in 4% paraformaldehyde. Fixed tissues were then washed in fresh PBS, dehydrated using 70% ethanol, cleared, and embedded in paraffin to be sectioned and stained with hematoxylin and eosin (H&E) for lung morphometry or immunohistochemistry/immunofluorescence as previously described (Leary, Das et al. 2019, Das, Achaiya et al. 2020, Das, Curstedt et al. 2020). Immunofluorescence staining was done for Ki67 (Abcam, 1:10) and Von Wilebrand Factor (vWF-DAKO, 1:100) on lung paraffin sections following the protocol as described earlier (Leary, Das et al. 2019) while TUNEL staining was done following the manufacturer's instructions (Roche).
# Morphometry and quantification. To study chord length, septal thickness and radial alveolar count in the lungs, RV, LV and IVS thickness, 5 μm-thick left-lobe lung and heart paraffin-embedded sections were stained with H&E. Multiple randomly chosen areas (at least 10 areas) from each section were photographed using 100× total magnification. […]
# [1] = 2 doses IP 10 mg/kg on P2 and P4, comparable to RA controls
# [2] = IP dosing, doses 0.5, 2.0, 5.0 and 10 mg/kg
structure (smiles),measurement,setting,value
CC(=O)N[C@@H]1C(Oc2ccc([N+](=O)[O-])cc2)OC(CO)C(O)C1O (stereo partly shown) [AVR-48],prevention of the BPD phenotypes,10 mg/kg IP,> 80%
same,chord length (alveolar sacs),[1],regained their normal shape and size
same,septal thickness (alveolar sacs),[1],regained their normal shape and size
same,radial alveolar counts (RAC),"2 doses IP 10 mg/kg on P2 and P4, vs BPD",improved
same,chord length,AVR-48 administered adjuvantly with CS (Curosurf IN),normal
same,interaction between the drug and CS,AVR-48 administered adjuvantly with CS in mouse pups,no adverse effect
same,minimum efficacious dose,[2],5.0 mg/kg
same,optimum / most efficacious dose,[2],10 mg/kg
same,minimum efficacious dose,juvenile mouse,5 mg/kg/day
same,inflammatory cytokines in neonatal mouse pups with BPD,"mouse, in vivo",decrease inflammatory cytokines
